In patent US9493511B2, “Cyclosporin analogs” (Allergan, Inc., priority 2010, dated 2016):
Counter-ions that a name gives are not always drawn. Like-named read-outs stand apart in the source and are kept apart here. Square brackets hold non-standard residues; d marks the D form. Peptide text beside a SMILES is read from it. * marks the point of attachment. NMe(2-epi-Bmt) = C/C=C/C[C@@H](C)[C@@H](O)[C@@H](NC)C(=O)O; Ethyl(2-morpholino) = C1CN(CC*)CCO1; Ethyl(2-guanidino) = N=C(N)NCC*; Ala(3-yl) = N[C@@H](C*)C(=O)O; NMeL = CN[C@@H](CC(C)C)C(=O)O; dNMeL = CN[C@H](CC(C)C)C(=O)O; dNMeV = CN[C@@H](C(=O)O)C(C)C; dNMeC = CN[C@H](CS)C(=O)O; dAbu = CC[C@@H](N)C(=O)O; Et2NCH2CH2 = CCN(CC)CC*; CH2CH2COOH = O=C(O)CC*; X3 = c1cc(CC*)ccn1; X5 = CN1CCC(*)CC1; X6 = COC(=O)CC*; X1 = COC(=O)C*; X4 = CC(C)NCC*; X2 = CCCCC*

Tests used:
human recombinant Cyp A = human recombinant Cyp A (Homo sapiens, UniProt P62937); assay: biochemical
Chain of human recombinant Cyp A (P62937 whole entry): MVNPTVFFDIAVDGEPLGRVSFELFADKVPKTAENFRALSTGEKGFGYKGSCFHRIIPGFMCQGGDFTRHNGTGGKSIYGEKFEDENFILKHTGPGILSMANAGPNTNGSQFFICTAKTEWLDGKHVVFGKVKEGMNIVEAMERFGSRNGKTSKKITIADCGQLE

Calcineurin = Calcineurin (Homo sapiens, UniProt P63098+Q08209); assay: biochemical
[1] = test system: Spleen cells from C57BL/6 (responder) and BALB/c (stimulator) mice; assay: Mixed lymphocyte reaction (MLR) assay; format: cell-based, mouse

| SMILES | Ki (human recombinant Cyp A) [nM] | IC50 (Calcineurin) [µM] | IC50 ([1]; Mus musculus, read-out: MLR nM) [nM] | IC50 ([1]; mouse spleen cells, five days, 3H-thymidine proliferation, read-out: MLR) [nM] |
| --- | --- | --- | --- | --- |
| C/C=C/C[C@@H](C)[C@@H](O)[C@@H]1C(=O)N[C@H](CC)C(=O)N(C)[C@H](CSCCC(=O)OC)C(=O)N(C)[C@@H](CC(C)C)C(=O)N[C@H](C(C)C)C(=O)N(C)[C@H](CC(C)C)C(=O)N[C@H](C)C(=O)N[C@@H](C)C(=O)N(C)[C@H](CC(C)C)C(=O)N(C)[C@H](CC(C)C)C(=O)N(C)[C@H](C(C)C)C(=O)N1C [Example 12, [(S)-Carbomethoxyethylthiomethyl-Sar]^3 cyclosporin A] (cyclo(A[dNMeL][dNMeL][dNMeV][NMe(2-epi-Bmt)][dAbu][dNMeC](X6)[NMeL][dV][dNMeL][dA])) | 2.7 | 9.1 |  |  |
| C/C=C/C[C@@H](C)[C@@H](O)[C@@H]1C(=O)N[C@H](CC)C(=O)N(C)[C@H](CSCCNC(=N)N)C(=O)N(C)[C@@H](CC(C)C)C(=O)N[C@H](C(C)C)C(=O)N(C)[C@H](CC(C)C)C(=O)N[C@H](C)C(=O)N[C@@H](C)C(=O)N(C)[C@H](CC(C)C)C(=O)N(C)[C@H](CC(C)C)C(=O)N(C)[C@H](C(C)C)C(=O)N1C [Example 19, [(S)-2-Guanidinoethyl-1-sulfanylmethyl-Sar]^3 cyclosporin A hydrochloride] (cyclo(A[dNMeL][dNMeL][dNMeV][NMe(2-epi-Bmt)][dAbu][dNMeC](Ethyl(2-guanidino))[NMeL][dV][dNMeL][dA])) | 6.8 | 3.2 |  |  |
| C/C=C/C[C@@H](C)[C@@H](O)[C@@H]1C(=O)N[C@H](CC)C(=O)N(C)[C@H](CSCCN2CCOCC2)C(=O)N(C)[C@@H](CC(C)C)C(=O)N[C@H](C(C)C)C(=O)N(C)[C@H](CC(C)C)C(=O)N[C@H](C)C(=O)N[C@@H](C)C(=O)N(C)[C@H](CC(C)C)C(=O)N(C)[C@H](CC(C)C)C(=O)N(C)[C@H](C(C)C)C(=O)N1C [Example 10, [(S)-2-(Morpholino)ethylthiomethyl-Sar]^3 cyclosporin A] (cyclo(A[dNMeL][dNMeL][dNMeV][NMe(2-epi-Bmt)][dAbu][dNMeC](Ethyl(2-morpholino))[NMeL][dV][dNMeL][dA])) | 3.9 | 4.2 |  |  |
| C/C=C/C[C@@H](C)[C@@H](O)[C@@H]1C(=O)N[C@H](CC)C(=O)N(C)[C@H](CSC[C@H](N)C(=O)O)C(=O)N(C)[C@@H](CC(C)C)C(=O)N[C@H](C(C)C)C(=O)N(C)[C@H](CC(C)C)C(=O)N[C@H](C)C(=O)N[C@@H](C)C(=O)N(C)[C@H](CC(C)C)C(=O)N(C)[C@H](CC(C)C)C(=O)N(C)[C@H](C(C)C)C(=O)N1C [Example 14, [(S)-{(R)-2-Amino-2-carbohydroxy-ethyl}thiomethyl-Sar]^3 cyclosporin A] (cyclo(A[dNMeL][dNMeL][dNMeV][NMe(2-epi-Bmt)][dAbu][dNMeC](Ala(3-yl))[NMeL][dV][dNMeL][dA])) |  | 7.4 |  |  |
| C/C=C/C[C@@H](C)[C@@H](O)[C@@H]1C(=O)N[C@H](CC)C(=O)N(C)[C@H](CSC(C)(C)[C@@H](N)C(=O)OC)C(=O)N(C)[C@@H](CC(C)C)C(=O)N[C@H](C(C)C)C(=O)N(C)[C@H](CC(C)C)C(=O)N[C@H](C)C(=O)N[C@@H](C)C(=O)N(C)[C@H](CC(C)C)C(=O)N(C)[C@H](CC(C)C)C(=O)N(C)[C@H](C(C)C)C(=O)N1C [Example 13, [(S)-{(S)-2-Amino-2-carbomethoxy-1,1-dimethyl-ethyl}thiomethyl-Sar]^3 cyclosporin A] | 9.3 | 4.1 |  |  |
| C/C=C/C[C@@H](C)[C@@H](O)[C@@H]1C(=O)N[C@H](CC)C(=O)N(C)[C@H](CSCCN(CC)CC)C(=O)N(C)[C@@H](CC(C)C)C(=O)N[C@H](C(C)C)C(=O)N(C)[C@H](CC(C)C)C(=O)N[C@H](C)C(=O)N[C@@H](C)C(=O)N(C)[C@H](CC(C)C)C(=O)N(C)[C@H](CC(C)C)C(=O)N(C)[C@H](C(C)C)C(=O)N1C [Example 2, [(S)-2-Diethylaminoethylthiomethyl-Sar]^3 cyclosporin A] (cyclo(A[dNMeL][dNMeL][dNMeV][NMe(2-epi-Bmt)][dAbu][dNMeC](Et2NCH2CH2)[NMeL][dV][dNMeL][dA])) | 2.4 | 3.6 | 3500 |  |
| C/C=C/C[C@@H](C)[C@@H](O)[C@@H]1C(=O)N[C@H](CC)C(=O)N(C)[C@H](CSCC(=O)OC)C(=O)N(C)[C@@H](CC(C)C)C(=O)N[C@H](C(C)C)C(=O)N(C)[C@H](CC(C)C)C(=O)N[C@H](C)C(=O)N[C@@H](C)C(=O)N(C)[C@H](CC(C)C)C(=O)N(C)[C@H](CC(C)C)C(=O)N(C)[C@H](C(C)C)C(=O)N1C [Example 11, [(S)-Carbomethoxymethylthiomethyl-Sar]^3 cyclosporin A] (cyclo(A[dNMeL][dNMeL][dNMeV][NMe(2-epi-Bmt)][dAbu][dNMeC](X1)[NMeL][dV][dNMeL][dA])) | 2.1 | 3.9 | 19500 |  |
| C/C=C/C[C@@H](C)[C@@H](O)[C@@H]1C(=O)N[C@H](CC)C(=O)N(C)[C@H](CSC2CCN(C)CC2)C(=O)N(C)[C@@H](CC(C)C)C(=O)N[C@H](C(C)C)C(=O)N(C)[C@H](CC(C)C)C(=O)N[C@H](C)C(=O)N[C@@H](C)C(=O)N(C)[C@H](CC(C)C)C(=O)N(C)[C@H](CC(C)C)C(=O)N(C)[C@H](C(C)C)C(=O)N1C [Example 9] (cyclo(A[dNMeL][dNMeL][dNMeV][NMe(2-epi-Bmt)][dAbu][dNMeC](X5)[NMeL][dV][dNMeL][dA])) | 4.8 | 3.3 | 3800 |  |
| C/C=C/C[C@@H](C)[C@@H](O)[C@@H]1C(=O)N[C@H](CC)C(=O)N(C)[C@H](CSC)C(=O)N(C)[C@@H](CC(C)C)C(=O)N[C@H](C(C)C)C(=O)N(C)[C@H](CC(C)C)C(=O)N[C@H](C)C(=O)N[C@@H](C)C(=O)N(C)[C@H](CC(C)C)C(=O)N(C)[C@H](CC(C)C)C(=O)N(C)[C@H](C(C)C)C(=O)N1C [Example 4, [(S)-Methylthiomethyl-Sar]^3 cyclosporin A] (cyclo(A[dNMeL][dNMeL][dNMeV][NMe(2-epi-Bmt)][dAbu][dNMeC](Me)[NMeL][dV][dNMeL][dA])) | 6.9 | 2.2 |  |  |
| C/C=C/C[C@@H](C)[C@@H](O)[C@@H]1C(=O)N[C@H](CC)C(=O)N(C)[C@H](CSCCCCC)C(=O)N(C)[C@@H](CC(C)C)C(=O)N[C@H](C(C)C)C(=O)N(C)[C@H](CC(C)C)C(=O)N[C@H](C)C(=O)N[C@@H](C)C(=O)N(C)[C@H](CC(C)C)C(=O)N(C)[C@H](CC(C)C)C(=O)N(C)[C@H](C(C)C)C(=O)N1C [Example 5, [(S)-Pentylthiomethyl-Sar]^3 cyclosporin A] (cyclo(A[dNMeL][dNMeL][dNMeV][NMe(2-epi-Bmt)][dAbu][dNMeC](X2)[NMeL][dV][dNMeL][dA])) | 2.3 | > 10 | 2700 |  |
| C/C=C/C[C@@H](C)[C@@H](O)[C@@H]1C(=O)N[C@H](CC)C(=O)N(C)[C@H](CSCCNC(C)C)C(=O)N(C)[C@@H](CC(C)C)C(=O)N[C@H](C(C)C)C(=O)N(C)[C@H](CC(C)C)C(=O)N[C@H](C)C(=O)N[C@@H](C)C(=O)N(C)[C@H](CC(C)C)C(=O)N(C)[C@H](CC(C)C)C(=O)N(C)[C@H](C(C)C)C(=O)N1C [Example 18, [(S)-2-Isopropylaminoethylthiomethyl-Sar]^3 cyclosporin A] (cyclo(A[dNMeL][dNMeL][dNMeV][NMe(2-epi-Bmt)][dAbu][dNMeC](X4)[NMeL][dV][dNMeL][dA])) | 5.2 | 4.6 |  | 3300 |
| C/C=C/C[C@@H](C)[C@@H](O)[C@@H]1C(=O)N[C@H](CC)C(=O)N(C)[C@H](CSCCC(=O)O)C(=O)N(C)[C@@H](CC(C)C)C(=O)N[C@H](C(C)C)C(=O)N(C)[C@H](CC(C)C)C(=O)N[C@H](C)C(=O)N[C@@H](C)C(=O)N(C)[C@H](CC(C)C)C(=O)N(C)[C@H](CC(C)C)C(=O)N(C)[C@H](C(C)C)C(=O)N1C [Example 17, [(S)-Carbohydroxyethylthiomethyl-Sar]^3 cyclosporin A] (cyclo(A[dNMeL][dNMeL][dNMeV][NMe(2-epi-Bmt)][dAbu][dNMeC](CH2CH2COOH)[NMeL][dV][dNMeL][dA])) | 2.8 | 17 |  |  |
| C/C=C/C[C@@H](C)[C@@H](O)[C@@H]1C(=O)N[C@H](CC)C(=O)N(C)[C@H](CSC(C)(C)[C@@H](N)C(=O)O)C(=O)N(C)[C@@H](CC(C)C)C(=O)N[C@H](C(C)C)C(=O)N(C)[C@H](CC(C)C)C(=O)N[C@H](C)C(=O)N[C@@H](C)C(=O)N(C)[C@H](CC(C)C)C(=O)N(C)[C@H](CC(C)C)C(=O)N(C)[C@H](C(C)C)C(=O)N1C [Example 16, [(S)-{(S)-2-Amino-2-carbohydroxy-1,1-dimethyl-ethyl}thiomethyl-Sar]^3 cyclosporin A] | 5.8 | 2.7 |  |  |
| C/C=C/C[C@@H](C)[C@@H](O)[C@@H]1C(=O)N[C@H](CC)C(=O)N(C)[C@H](CSCCc2ccncc2)C(=O)N(C)[C@@H](CC(C)C)C(=O)N[C@H](C(C)C)C(=O)N(C)[C@H](CC(C)C)C(=O)N[C@H](C)C(=O)N[C@@H](C)C(=O)N(C)[C@H](CC(C)C)C(=O)N(C)[C@H](CC(C)C)C(=O)N(C)[C@H](C(C)C)C(=O)N1C [Example 3, [(S)-2-(4-pyridyl)ethylthiomethyl-Sar]^3 cyclosporin A] (cyclo(A[dNMeL][dNMeL][dNMeV][NMe(2-epi-Bmt)][dAbu][dNMeC](X3)[NMeL][dV][dNMeL][dA])) | 4.3 | 11.8 | 2000 |  |
